According to patent publication US20060252807A1, “Novel ortho-terphenyl inhibitors of p38 kinase and methods of treating inflammatory disorders” (Kalypsys, Inc., priority 2005, published 2006):

Target: T1, active p38 alpha enzyme (Upstate Biotechnology) (Homo sapiens, UniProt Q16539)
T1 construct: purchased Upstate Biotechnology
Test: p38α biochemical assay (ATP turnover, luminescent detection, Cambrex PKlight)
Conditions: Table 1 Biological Activity
Procedure, shortened: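 p38α + MapkapK2 (whole protein substrate) + 1.4 uM ATP final; Tris/MOPS buffer with MgCl2, CaCl2, EGTA, EDTA, glycerol, β-ME, BSA; 2 h at 30C; luminescent detection of remaining ATP.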

T1 sequence (Q16539 whole entry): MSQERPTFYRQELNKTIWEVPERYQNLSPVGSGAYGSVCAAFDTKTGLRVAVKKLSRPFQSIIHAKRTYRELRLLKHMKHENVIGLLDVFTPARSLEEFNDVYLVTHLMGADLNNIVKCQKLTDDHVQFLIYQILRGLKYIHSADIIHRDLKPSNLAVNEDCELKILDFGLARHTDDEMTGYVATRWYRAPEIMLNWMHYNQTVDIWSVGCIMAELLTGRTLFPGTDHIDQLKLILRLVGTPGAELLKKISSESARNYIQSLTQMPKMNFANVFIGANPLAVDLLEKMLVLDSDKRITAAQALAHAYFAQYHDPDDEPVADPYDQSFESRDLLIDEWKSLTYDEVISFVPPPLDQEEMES

| IC50 (p38α biochemical assay) [nM] | IC50 (p38α kinase) [nM] | SMILES |
| --- | --- | --- |
| > 1000 |  | COc1cc(OC)c(C(=O)NCc2onc(-c3ccc(F)cc3)c2-c2nc(C(=O)NC(C)C)cs2)c(OC)c1 [Example 758] |
| > 1000 |  | COc1cc(OC)c(C(=O)NCc2onc(-c3ccc(F)cc3)c2-c2nc(C(=O)NC(C)C)cs2)cc1OC [Example 759] |
| > 1000 |  | COc1cc(C(=O)NCc2onc(-c3ccc(F)cc3)c2-c2nc(C(=O)NC(C)C)cs2)cc(OC)c1OC [Example 760] |
| > 1000 |  | COc1ccc(C(=O)NCc2onc(-c3ccc(F)cc3)c2-c2nc(C(=O)NC(C)C)cs2)c(OC)c1OC [Example 761] |
| > 1000 |  | CC(C)NC(=O)c1csc(-c2c(-c3ccc(F)cc3)noc2CNC(=O)c2ccccc2Cc2ccccc2)n1 [Example 762] |
| > 1000 |  | CC(C)NC(=O)c1csc(-c2c(-c3ccc(F)cc3)noc2CNC(=O)c2cccc(Oc3ccccc3)c2)n1 [Example 763] |
| > 1000 |  | CC(C)NC(=O)c1csc(-c2c(-c3ccc(F)cc3)noc2CNC(=O)c2ccccc2Oc2ccccc2)n1 [Example 764] |
| > 1000 |  | CC(C)NC(=O)c1csc(-c2c(-c3ccc(F)cc3)noc2CNC(=O)c2ccc(Oc3ccccc3)cc2)n1 [Example 765] |
| > 1000 |  | CC(C)NC(=O)c1csc(-c2c(-c3ccc(F)cc3)noc2CNC(=O)c2ccc(-c3ccc(O)cc3)cc2)n1 [Example 766] |
| > 1000 |  | Cc1cc(C(=O)NCc2onc(-c3ccc(F)cc3)c2-c2nc(C(=O)NC(C)C)cs2)ccc1Br [Example 767] |
| > 1000 |  | Cc1ccc(C(=O)NCc2onc(-c3ccc(F)cc3)c2-c2nc(C(=O)NC(C)C)cs2)cc1Br [Example 768] |
| > 1000 |  | CC(C)NC(=O)c1csc(-c2c(-c3ccc(F)cc3)noc2CNC(=O)Cc2ccc(Br)cc2)n1 [Example 769] |
| > 1000 |  | CC(C)NC(=O)c1csc(-c2c(-c3ccc(F)cc3)noc2CNC(=O)C2CCCN2C(=O)OC(C)(C)C)n1 (stereo not shown) [Example 770] |
| > 1000 |  | CC(C)NC(=O)c1csc(-c2c(-c3ccc(F)cc3)noc2CNC(=O)/C=C/c2ccccc2C(F)(F)F)n1 [Example 771] |
| > 1000 |  | CCOc1ccc2ccccc2c1C(=O)NCc1onc(-c2ccc(F)cc2)c1-c1nc(C(=O)NC(C)C)cs1 [Example 772] |
| > 1000 |  | CC(C)NC(=O)c1csc(-c2c(-c3ccc(F)cc3)noc2CNC(=O)C(NC(=O)OC(C)(C)C)C(C)C)n1 (stereo not shown) [Example 773] |
| > 1000 |  | CC(C)NC(=O)c1csc(-c2c(-c3ccc(F)cc3)noc2CNC(=O)C(NC(=O)OC(C)(C)C)C(C)C)n1 (stereo not shown) [Example 774] |
| > 1000 |  | CC(C)NC(=O)c1csc(-c2c(-c3ccc(F)cc3)noc2CNC(=O)CCc2cccc(C(F)(F)F)c2)n1 [Example 775] |
| > 1000 |  | CC1=NN(c2ccc(C(=O)NCc3onc(-c4ccc(F)cc4)c3-c3nc(C(=O)NC(C)C)cs3)cc2)C(=O)C1 [Example 776] |
| > 1000 |  | Cc1nc(Br)sc1C(=O)NCc1onc(-c2ccc(F)cc2)c1-c1nc(C(=O)NC(C)C)cs1 [Example 777] |
| > 1000 |  | CC(C)NC(=O)c1csc(-c2c(-c3ccc(F)cc3)noc2CNC(=O)c2c3ccccc3cc3ccccc23)n1 [Example 778] |
| > 1000 |  | CC(C)NC(=O)c1csc(-c2c(-c3ccc(F)cc3)noc2CNC(=O)c2cc(C(C)C)cc(C(C)C)c2O)n1 [Example 779] |
| > 1000 |  | CC(=O)NC(Cc1ccc(O)cc1)C(=O)NCc1onc(-c2ccc(F)cc2)c1-c1nc(C(=O)NC(C)C)cs1 (stereo not shown) [Example 780] |

| IC50 (p38α biochemical assay) [nM] | IC50 (p38α kinase) [nM] | SMILES |
| --- | --- | --- |
| > 1000 |  | CC(C)NC(=O)c1csc(-c2c(-c3ccc(F)cc3)noc2CNC(=O)c2c(Cl)cc(Cl)cc2Cl)n1 [Example 781] |
| > 1000 |  | COc1cc(C(=O)NCc2onc(-c3ccc(F)cc3)c2-c2nc(C(=O)NC(C)C)cs2)c([N+](=O)[O-])cc1OC [Example 782] |
| > 1000 |  | CC(C)NC(=O)c1csc(-c2c(-c3ccc(F)cc3)noc2CNC(=O)c2ccc(OCc3ccccc3)cc2)n1 [Example 783] |
| > 1000 |  | CC(C)NC(=O)c1csc(-c2c(-c3ccc(F)cc3)noc2CNC(=O)CCc2ccccc2Br)n1 [Example 784] |
| > 1000 |  | CC(C)NC(=O)c1csc(-c2c(-c3ccc(F)cc3)noc2CNC(=O)CCc2cccc(Br)c2)n1 [Example 785] |
| > 1000 |  | CC(C)NC(=O)c1csc(-c2c(-c3ccc(F)cc3)noc2CNC(=O)C2CCCCN2C(=O)OC(C)(C)C)n1 (stereo not shown) [Example 786] |
| > 1000 |  | CC(C)NC(=O)c1csc(-c2c(-c3ccc(F)cc3)noc2CNC(=O)c2ccc(Oc3cccc(O)c3)cc2)n1 [Example 787] |
| > 1000 |  | COc1ccc2cc(C(C)C(=O)NCc3onc(-c4ccc(F)cc4)c3-c3nc(C(=O)NC(C)C)cs3)ccc2c1 (stereo not shown) [Example 788] |
| > 1000 |  | CC(C)NC(=O)c1csc(-c2c(-c3ccc(F)cc3)noc2CNC(=O)C2CN(C(=O)OC(C)(C)C)CCN2)n1 (stereo not shown) [Example 789] |
| > 1000 |  | CC(C)NC(=O)c1csc(-c2c(-c3ccc(F)cc3)noc2CNC(=O)C2CN(C(=O)OC(C)(C)C)CCN2)n1 (stereo not shown) [Example 790] |
| > 1000 |  | COc1ccc(Br)c(C(=O)NCc2onc(-c3ccc(F)cc3)c2-c2nc(C(=O)NC(C)C)cs2)c1 [Example 791] |
| > 1000 |  | CC(C)NC(=O)c1csc(-c2c(-c3ccc(F)cc3)noc2CNC(=O)C2CC(O)CN2C(=O)OC(C)(C)C)n1 (stereo not shown) [Example 792] |
| > 1000 |  | CC(C)NC(=O)c1csc(-c2c(-c3ccc(F)cc3)noc2CNC(=O)C(C(C)C)N(C)C(=O)OC(C)(C)C)n1 (stereo not shown) [Example 793] |
| > 1000 |  | CC(C)NC(=O)c1csc(-c2c(-c3ccc(F)cc3)noc2CNC(=O)c2ccc(C(F)(F)F)cc2[N+](=O)[O-])n1 [Example 794] |
| > 1000 |  | CC(C)NC(=O)c1csc(-c2c(-c3ccc(F)cc3)noc2CNC(=O)c2cc(Br)ccc2Cl)n1 [Example 795] |
| > 1000 |  | CC(C)NC(=O)c1csc(-c2c(-c3ccc(F)cc3)noc2CNC(=O)c2ccc(Cl)c(Br)c2)n1 [Example 796] |
|  | > 1000 | CC(C)NC(=O)c1csc(-c2c(-c3ccc(F)cc3)noc2CNC(=O)c2ccccc2C(=O)c2ccc(O)cc2)n1 [Example 797] |
|  | > 1000 | CC(C)NC(=O)c1csc(-c2c(-c3ccc(F)cc3)noc2CNC(=O)c2ccccc2C(=O)c2ccc(F)cc2)n1 [Example 798] |
|  | > 1000 | CC(C)NC(=O)c1csc(-c2c(-c3ccc(F)cc3)noc2CNC(=O)C(C)c2ccc(-c3ccccc3)c(F)c2)n1 (stereo not shown) [Example 799] |
|  | > 1000 | CC(C)NC(=O)c1csc(-c2c(-c3ccc(F)cc3)noc2CNC(=O)c2cccc(I)c2)n1 [Example 801] |
|  | > 1000 | CC(C)NC(=O)c1csc(-c2c(-c3ccc(F)cc3)noc2CNC(=O)C2CCCN2C(=O)OCc2ccccc2)n1 (stereo not shown) [Example 802] |
|  | > 1000 | CCC(C)C(NC(=O)OC(C)(C)C)C(=O)NCc1onc(-c2ccc(F)cc2)c1-c1nc(C(=O)NC(C)C)cs1 (stereo not shown) [Example 803] |
|  | > 1000 | CC(C)CC(NC(=O)OC(C)(C)C)C(=O)NCc1onc(-c2ccc(F)cc2)c1-c1nc(C(=O)NC(C)C)cs1 (stereo not shown) [Example 804] |

| IC50 (p38α biochemical assay) [nM] | IC50 (p38α kinase) [nM] | SMILES |
| --- | --- | --- |
|  | > 1000 | CC(C)NC(=O)c1csc(-c2c(-c3ccc(F)cc3)noc2CNC(=O)C(C)c2cccc(C(=O)c3ccccc3)c2)n1 (stereo not shown) [Example 805] |
|  | > 1000 | CC(C)NC(=O)c1csc(-c2c(-c3ccc(F)cc3)noc2CNC(=O)C(Cc2ccccc2)NC(=O)OC(C)(C)C)n1 (stereo not shown) [Example 806] |
|  | > 1000 | CC(C)NC(=O)c1csc(-c2c(-c3ccc(F)cc3)noc2CNC(=O)C(Cc2ccccn2)NC(=O)OC(C)(C)C)n1 (stereo not shown) [Example 807] |
|  | > 1000 | CC(C)NC(=O)c1csc(-c2c(-c3ccc(F)cc3)noc2CNC(=O)C2Cc3ccccc3CN2C(=O)OC(C)(C)C)n1 (stereo not shown) [Example 808] |
|  | > 1000 | CC(C)NC(=O)c1csc(-c2c(-c3ccc(F)cc3)noc2CNC(=O)C(Cc2ccc(O)cc2)NC(=O)OC(C)(C)C)n1 (stereo not shown) [Example 809] |
|  | ≤ 1000 | CC(C)NC(=O)c1csc(-c2c(-c3ccc(F)cc3)noc2CN)n1 [Example 810] |
|  | ≤ 1000 | CC(C)NC(=O)c1csc(-c2c(-c3ccc(F)cc3)n[nH]c2C2CCN(C(=O)C=O)CC2)n1 [Example 813] |
|  | ≤ 1000 | CC(C)NC(=O)c1csc(-c2c(-c3ccc(F)cc3)n[nH]c2C2CCN(C(=O)CC#N)CC2)n1 [Example 814] |
|  | ≤ 1000 | CC(C)NC(=O)c1csc(-c2c(-c3ccc(F)cc3)n[nH]c2C2CCN(C(=O)C(C)O)CC2)n1 (stereo not shown) [Example 815] |
|  | > 1000 | CCC(=O)C(=O)N1CCC(c2[nH]nc(-c3ccc(F)cc3)c2-c2nc(C(=O)NC(C)C)cs2)CC1 [Example 816] |
|  | ≤ 1000 | CC(C)NC(=O)c1csc(-c2c(-c3ccc(F)cc3)n[nH]c2C2CCN(C(=O)C(C)(C)C)CC2)n1 [Example 817] |
|  | > 1000 | CC(C)CC(=O)N1CCC(c2[nH]nc(-c3ccc(F)cc3)c2-c2nc(C(=O)NC(C)C)cs2)CC1 [Example 818] |
|  | > 1000 | CC(C)NC(=O)c1csc(-c2c(-c3ccc(F)cc3)n[nH]c2C2CCN(C(=O)c3cnc[nH]3)CC2)n1 [Example 819] |
|  | > 1000 | CC(C)NC(=O)c1csc(-c2c(-c3ccc(F)cc3)n[nH]c2C2CCN(C(=O)C3=CCCC3)CC2)n1 [Example 821] |
|  | ≤ 1000 | CC(C)NC(=O)c1csc(-c2c(-c3ccc(F)cc3)n[nH]c2C2CCN(C(=O)C3CCCO3)CC2)n1 (stereo not shown) [Example 823] |
|  | ≤ 1000 | CC(C)NC(=O)c1csc(-c2c(-c3ccc(F)cc3)n[nH]c2C2CCN(C(=O)c3ccccc3)CC2)n1 [Example 825] |
|  | ≤ 1000 | CC(C)NC(=O)c1csc(-c2c(-c3ccc(F)cc3)n[nH]c2C2CCN(C(=O)C(O)CCl)CC2)n1 (stereo not shown) [Example 829] |
|  | > 1000 | Cc1cc(C(=O)N2CCC(c3[nH]nc(-c4ccc(F)cc4)c3-c3nc(C(=O)NC(C)C)cs3)CC2)n[nH]1 [Example 830] |
|  | > 1000 | CC(C)NC(=O)c1csc(-c2c(-c3ccc(F)cc3)n[nH]c2C2CCN(C(=O)c3cn(C)cn3)CC2)n1 [Example 831] |
|  | > 1000 | CC(C)NC(=O)c1csc(-c2c(-c3ccc(F)cc3)n[nH]c2C2CCN(C(=O)C3CCCCC3)CC2)n1 [Example 832] |
|  | ≤ 1000 | CC(C)NC(=O)c1csc(-c2c(-c3ccc(F)cc3)n[nH]c2C2CCN(C(=O)c3cscn3)CC2)n1 [Example 833] |
